Laboratory results as given in patent publication US10865196B2, “Compounds for treatment of cancer” (University of Tennessee Research Foundation, priority 2008, dated 2020).
Values joined by “and” are separate entries in the source; they are usually repeats but may differ in a detail not shown here. Identical values can stand only once. Like-named read-outs stand apart in the source and are kept apart here.

Key:
[1] = system: NCI-60 human tumor cell lines; assay: NCI-60 screening assay
[2] = pharmacokinetic study in Sprague-Dawley rats; conditions: rat
[3] = pharmacokinetic study in ICR mice; conditions: mouse, IV 10 mg/kg
[4] = system: LNCaP prostate cancer cells; assay: cell cycle analysis, propidium iodide; assay type: cell-based, human; conditions: 24 h
[5] = system: melanoma (A375, B16-F1) and prostate cancer cells (DU145, PC-3, LNCaP, PPC-1); assay: SRB assay, range over melanoma and prostate cancer cell lines; assay type: cell-based; conditions: range over the examined cell lines; read-out: IC50 over melanoma and prostate cancer cell lines
Method: (§1) For melanoma assays, one human melanoma cell line (A375) and one mouse melanoma cell line (B16-F1) were used. […] Fibroblast cells were used as a control to determine the selectivity of these compounds against melanoma. Human dermal fibroblast cells were purchased from Cascade Biologics, Inc., Portland, Oreg., USA. […] Cells were exposed to a wide range of concentrations for 48 h in round-bottomed 96-well plates. […] After cells were air-dried overnight and stained with SRB solution, total proteins were measured at 560 nm with a plate reader.

[6] = system: Human A375 malignant melanoma cells; assay: A375 melanoma colony formation; assay type: cell-based; conditions: 10 days
Method: Human A375 malignant melanoma cells were plated at a colony-forming density (200 cells per well on six well plates). Cells were grown in DMEM medium (GIBCO, Invitrogen Corp., Carlsbad, Calif.) supplemented with charcoal-stripped fetal bovine serum (HyClone, Logan, Utah) and an antibiotic-antimycotic solution (Sigma, St. Louis, Mo.) at 37° C. in an atmosphere of 95% air and 5% CO2. […] Cells were grown for 10 days and colonies were fixed with 4% paraformaldehyde in PBS at 4° C. The fixed colonies were washed with distilled water, stained with 0.1% crystalline blue for 30 min and rinsed with distilled water to remove excess of the dye. Plates were photographed and colony formations were examined by eye and under the microscope.

melanoma cells = assay: SRB assay, melanoma cells; assay type: cell-based; conditions: range over melanoma cell lines; read-out: IC50 values against melanoma cells
Method: as §1

B16-F1 mouse melanoma = assay: B16-F1 melanoma tumor in C57BL/6 mice; assay type: in vivo; conditions: B16-F1 in C57BL/6 mice, 6 mg/kg daily i.p.
Method: B16 tumors will grow in a fully immunocompetent host, in which case the tumor progression may more accurately replicate melanoma growth. Logarithmic growth phase B16-F1 (3.8×10^5) cells were injected s.c. into the right dorsal flank of C57BL/6 mice. When tumors were palpable, mice were randomized into a control and a treatment group (n=9). […] Body weights were also recorded. Tumor volume was expressed as cubic millimeters. […] There was no significant body weight loss (<5%), and all mice had normal activities during the experiments.

[7] = system: prostate cancer cells (LNCaP, PC-3, DU-145, PPC-1); assay: SRB assay, prostate cancer cells; assay type: cell-based, human; conditions: range over prostate cancer cell lines, read-out: IC50 values against prostate cancer cells
MES-SA/DX5 = assay: SRB antiproliferation assay, doxorubicin-resistant MES-SA/DX5
A549 = assay: SRB antiproliferation assay, A549 lung cancer; conditions: Homo sapiens, A549, 96 h, read-out: IC50 in the SRB, A549
MES-SA = assay: SRB antiproliferation assay, MES-SA uterine cancer; conditions: Homo sapiens, 96 h, read-out: IC50 in the SRB, MES-SA
NCI/ADR-RES = assay: SRB antiproliferation assay, P-gp over-expressing NCI/ADR-RES; conditions: Homo sapiens, NCI/ADR-RES, 96 h, read-out: IC50 in the SRB, NCI/ADR-RES
OVCAR-8 = assay: SRB antiproliferation assay, OVCAR-8 ovarian cancer; conditions: Homo sapiens, OVCAR-8, 96 h, read-out: IC50 in the SRB, OVCAR8
PC-3 [8] = assay: SRB antiproliferation assay, PC-3 prostate cancer
[9] = metabolic stability in human liver microsomes; conditions: Phase I conditions, FIG. 18
MCF7 = assay: SRB antiproliferation assay, MCF7 breast cancer; conditions: Homo sapiens, MCF7, 96 h, read-out: IC50 in the SRB, MCF7
C26 = assay: SRB antiproliferation assay, C26 colon cancer; conditions: C26, 96 h, read-out: IC50 in the SRB, C26
PC3 = assay: cell growth inhibition SRB, PC3 (vascular study); assay type: cell-based; conditions: Homo sapiens, PC-3, N = 3, Table 14
Description: (§2) Cell growth inhibition studies. […] Cells were stained with sulphorhodamine B (SRB) solution.

T47D = assay: cell growth inhibition SRB, T47D; assay type: cell-based; conditions: Homo sapiens, N = 3, Table 14
Description: as §2

HUVEC = assay: endothelial cell growth inhibition SRB, HUVEC; assay type: cell-based, human; conditions: for Selectivity ratio, cancer cells/HUVEC: mean IC50 in PC3 and T47D over IC50 in HUVEC
[10] = system: confluent HUVEC monolayers; assay: endothelial monolayer permeability assay; assay type: cell-based, human; conditions: leakage of FITC-dextran (MW 40,000) after 1, 2 and 4 h
Description: Endothelial monolayer permeability assay.

PC-3 [11] = assay: apoptosis, cytoplasmic DNA-histone complexes, PC-3; assay type: cell-based, human; conditions: 0.8 to 600 nmol/L, 24 h
A549 xenografts = assay: A549 xenograft in nude mice; conditions: A549 lung xenograft, IV 10 mg/kg 1/wk
MES-SA/DX5 xenografts = assay: MES-SA/DX5 xenograft in nude mice; conditions: MES-SA/DX5 uterine (MDR) xenograft, IV 10 mg/kg 1/wk
OVCAR8 xenografts = assay: OVCAR8 xenograft in nude mice; conditions: OVCAR8 ovary xenograft, IV 10 mg/kg 1/wk
C26 xenografts = assay: C26 xenograft in nude mice; conditions: C26 colon xenograft, IV 10 mg/kg 1/wk
[12] = system: HUVEC capillary tube formation; assay: capillary formation assay on Matrigel; assay type: cell-based, human; conditions: at toxic concentration
B16-F1 = assay: SRB antiproliferation assay, B16-F1 melanoma; assay type: cell-based, mouse; conditions: Mus musculus, B16-F1, SRB; read-out: IC50 B16-F1 (converted)
Description: (§3) For melanoma assays, one human melanoma cell line (A375) and one mouse melanoma cell line (B16-F1) were used. […] Fibroblast cells were used as a control to determine the selectivity of these compounds against melanoma. Human dermal fibroblast cells were purchased from Cascade Biologics, Inc., Portland, Oreg., USA.

A375 = assay: SRB antiproliferation assay, A375 melanoma; assay type: cell-based, human; conditions: Homo sapiens, A-375, SRB; read-out: IC50 A375 (converted)
Description: as §3

[13] = system: colchicine-binding site on tubulin; assay: competitive mass binding assay, colchicine-tubulin binding; conditions: tubulin 1 mg/mL
[14] = Homo sapiens, MES-SA/Dx5, 96 h, read-out: IC50 in the SRB, MES-SA/DX5, uterine MDR, 96 h, N = 3
[15] = read-out: IC50 in the SRB, PC3, 96 h treatment, N = 3, Table 15
[16] = 5 mg/kg injected, 20 min-48 h, 5 mg/kg

## COc1cc(C(=O)c2csc(-c3ccccc3)n2)cc(OC)c1OC [8f, (2-Phenyl-thiazol-4-yl)-(3,4,5-trimethoxy-phenyl)-methanone]
[1]; Homo sapiens, read-out: NCI-60 GI50 values
  GI50: < 10 nM
[1]; against most cell lines
  NCI-60 TGI values: micromolar range
[2]; IV 2.5 mpk
  RatPK IV CI at 2.5 mpk: 7.7 (2.5 mpk) mL/min/kg
  RatPK IV V at 2.5 mpk: 4.9 (2.5 mpk) L/kg
[3]
  MousePK_IV10mgk_CI: 130 mL/min/kg
  MousePK_IV10mgk_V: 4.9 Lkg
[4]; 10 nM
  effect on cell cycle distribution: no effect
[4]; 50 nM, about 10% in untreated cells
  proportion of cells in G2/M phase: 57%
[4]; 200 nM
  proportion of cells in G2/M phase: 63%
[4]; 500 nM
  proportion of cells in G2/M phase: 49%
[5]
  IC50: 21 to 71 nM
[6]; A375, 0.03 μM
  melanoma colony formation: significantly inhibit
[6]; A375, 0.3 and 3 μM
  melanoma colony formation: completely inhibited

## COc1cc(C(=O)c2csc(-c3ccc(F)cc3)n2)cc(OC)c1OC [8n, [2-(4-Fluorophenyl)-thiazol-4-yl]-(3,4,5-trimethoxyphenyl)-methanone]
Melanoma cells
  IC50: 33 to 43 nM
B16-F1 mouse melanoma
  body weight loss: < 5%
  tumor growth inhibition: significant tumor growth inhibition
[7]; Homo sapiens
  IC50: 6 to 13 nM
[7]
  IC50: 6 to 12 nM
[5]
  IC50: 6 to 43 nM
[6]; A375, 0.03 μM
  melanoma colony formation: significantly inhibit
[6]; A375, 0.3 and 3 μM
  melanoma colony formation: completely inhibited

## COc1cc(C(=O)c2csc(-c3ccc4c(ccn4C)c3)n2)cc(OC)c1OC [31a]
MES-SA/DX5; [14]
  IC50: 18 nM
A549
  IC50: 21 nM
MES-SA
  IC50: 18 nM
NCI/ADR-RES
  IC50: 14 nM
OVCAR-8
  IC50: 16 nM
PC-3 [8]; [15]
  IC50: 5 nM
[9]
  stability in human liver microsomes, in words: acceptable stability
MCF7
  IC50: 22 nM
C26
  IC50: 16 nM

## COc1ccc(/C=C\c2cc(OC)c(OC)c(OC)c2)cc1O [CA4, reference compound]
PC3
  IC50: 3.2 nM
T47D
  IC50: 6 nM
HUVEC; Homo sapiens, HUVEC, SRB, N = 3, growth factor-supplemented endothelial cells
  IC50: 1.2 nM
[10]
  permeability of endothelial cell monolayer: increased permeability

## CC(=O)O[C@@]12CO[C@@H]1C[C@H](O)[C@@]1(C)C(=O)[C@H](O)C3=C(C)[C@@H](OC(=O)[C@H](O)[C@@H](NC(=O)OC(C)(C)C)c4ccccc4)C[C@@](O)([C@@H](OC(=O)c4ccccc4)[C@H]21)C3(C)C [Docetaxel, reference compound]
MES-SA/DX5; read-out: IC50 in the SRB, MES-SA/DX5, uterine MDR, 96 h, N = 3
  IC50: 26 nM
MES-SA/DX5; read-out: IC50 in the SRB, MES-SA/DX5, uterine MDR, 96 h, N = 3, listed as DTX
  IC50: 426 nM
PC-3/TxR tumors; PC3/TXR prostate (MDR) xenograft, IV 10 mg/kg 1/wk
  TGI: 14%
PC-3/TxR tumors; PC-3/TxR xenograft, IV 10 mpk day 1 and 9, day 19
  TGI: 14%
PC-3/TxR tumors; PC-3/TxR xenograft, IV 20 mpk day 1 and 9, day 19
  TGI: 56%
A549
  IC50: 0.2 nM
MES-SA
  IC50: 0.1 nM
OVCAR-8
  IC50: 0.4 nM
PC-3 [8]; read-out: Cytotoxicity IC50 mean ± SD, PC-3, 96 h treatment, N = 3
  IC50: 1.2 ± 0.1 nM
PC-3 [8]; [15]
  IC50: 1 to 5 nM
PC-3 [11]
  induction of cell apoptosis in PC-3: highly potent
MCF7
  IC50: 0.1 nM
A549 xenografts
  TGI: 44%
MES-SA/DX5 xenografts
  TGI: 47%
C26
  IC50: 4 nM
OVCAR8 xenografts
  TGI: 22%
C26 xenografts
  TGI: 35%

## COc1cccc2c1C(=O)c1c(O)c3c(c(O)c1C2=O)C[C@@](O)(C(=O)CO)C[C@@H]3O[C@H]1C[C@H](N)[C@H](O)[C@H](C)O1 [Doxorubicin]
[12]
  capillary construction: did not affect
HUVEC
  Selectivity ratio, cancer cells/HUVEC: 1.4
HUVEC; listed as doxorubicin
  Selectivity ratio, cancer cells/HUVEC: not specific to endothelial cells
[10]
  permeability of endothelial cell monolayer: did not induce any change

## COc1cc(C(=O)c2csc(-c3ccc4[nH]ccc4c3)n2)cc(OC)c1OC [compound 31]
MES-SA/DX5; [14]
  IC50: 8 nM
A549
  IC50: 9 nM
MES-SA
  IC50: 6 nM
NCI/ADR-RES
  IC50: 5 nM
[2]; [16]
  AUC: 210 µg·min/mL and 249 µg·min/mL
  CI: 23 mL/min/kg and 18 mL/min/kg
OVCAR-8
  IC50: 11 nM
PC-3 [8]; read-out: IC50 PC-3, SRB
  IC50: 7.6 nM
[9]
  stability in human liver microsomes, in words: acceptable stability
MCF7
  IC50: 11 nM
C26
  IC50: 5 nM
B16-F1
  IC50: 8.3 nM
A375
  IC50: 25 nM

## CC[C@]1(O)C[C@@H]2CN(CCc3c([nH]c4ccccc34)[C@@](C(=O)OC)(c3cc4c(cc3OC)N(C)[C@H]3[C@@](O)(C(=O)OC)[C@H](OC(C)=O)[C@]5(CC)C=CCN6CC[C@]43[C@@H]65)C2)C1 [vinblastine, reference compound]
[13]
  competition with colchicine for tubulin binding: did not inhibit the colchicine-tubulin binding
